Assay results reported in publication PMC8071163, “Design and Synthesis of 2,6-Disubstituted-4′-Selenoadenosine-5′-N,N-Dimethyluronamide Derivatives as Human A3 Adenosine Receptor Antagonists” (Pharmaceuticals, 2021).

Assays:
hA2BAR = target: T1, hA2BAR (Homo sapiens, UniProt P29275); test: Radioligand competition binding assay at hA2BAR ([3H]DPCPX)
T1 construct: host or cells: HEK-293-A2B cells (membranes)
T1 sequence (P29275 1-332): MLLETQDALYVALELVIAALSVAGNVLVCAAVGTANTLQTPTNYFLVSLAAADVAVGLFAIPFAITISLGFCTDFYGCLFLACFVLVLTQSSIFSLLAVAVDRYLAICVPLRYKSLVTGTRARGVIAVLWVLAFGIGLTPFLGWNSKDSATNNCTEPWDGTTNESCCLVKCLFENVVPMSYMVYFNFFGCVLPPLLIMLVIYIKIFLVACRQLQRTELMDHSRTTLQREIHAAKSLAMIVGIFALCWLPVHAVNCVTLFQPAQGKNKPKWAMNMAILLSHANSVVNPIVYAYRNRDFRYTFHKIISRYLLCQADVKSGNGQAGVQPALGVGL
Description: Adenosine A2B receptor competition binding experiments were carried out in membranes from HEK-293-A2B cells (Euroscreen, Gosselies, Belgium) prepared following the provider’s protocol. On the day of assay, membranes were defrosted and re-suspended in incubation buffer 50 mM Tris-HCl, 1 mM EDTA, 10 mM MgCl2, 0.1 mM benzamidine, 10 μg/mL bacitracine and 2 UI/mL adenosine deaminase (pH = 6.5). Each reaction well prepared in duplicate contained 18 μg of protein, 35 nM [^3H]DPCPX and test compound. Nonspecific binding was determined in the presence of 400 μM NECA. The reaction mixture was incubated at 25 °C for 30 min, after which samples were filtered through a multiscreen GF/C microplate and measured in a microplate beta scintillation counter (Microbeta Trilux, Perkin Elmer, Madrid, Spain).

hA2AAR = target: T2, hA2AAR (Homo sapiens, UniProt P29274); test: Radioligand competition binding assay at hA2AAR ([3H]ZM241385)
T2 construct: expressed in transfected cells; host or cells: HeLa-A2A cells (membranes)
Description: Adenosine A2A receptor competition binding experiments were carried out in membranes from HeLa-A2A cells. On the day of assay, membranes were defrosted and re-suspended in incubation buffer 50 mM Tris-HCl, 1 mM EDTA, 10 mM MgCl2 and 2 UI/mL adenosine deaminase (pH = 7.4). Each reaction well of a GF/C multiscreen plate (Millipore, Madrid, Spain), prepared in duplicate, contained 10 μg of protein, 3 nM [^3H]ZM241385 and test compound. Nonspecific binding was determined in the presence of 50 μM NECA. The reaction mixture was incubated at 25 °C for 30 min, after which samples were filtered and measured in a microplate beta scintillation counter (Microbeta Trilux, Perkin Elmer, Madrid, Spain).

hA3AR [1] = target: T3, hA3AR (Homo sapiens, UniProt P0DMS8); test: Radioligand competition binding assay at hA3AR ([3H]NECA); parameters: expressed in transfected cells; host or cells: HeLa-A3 cell line (membranes prepared in laboratory); conditions: 0.5 nM [3H]NECA; mean ± SEM (n = 2); read-out: Affinity, Ki, hA3AR
T3 sequence (P0DMS8 1-318): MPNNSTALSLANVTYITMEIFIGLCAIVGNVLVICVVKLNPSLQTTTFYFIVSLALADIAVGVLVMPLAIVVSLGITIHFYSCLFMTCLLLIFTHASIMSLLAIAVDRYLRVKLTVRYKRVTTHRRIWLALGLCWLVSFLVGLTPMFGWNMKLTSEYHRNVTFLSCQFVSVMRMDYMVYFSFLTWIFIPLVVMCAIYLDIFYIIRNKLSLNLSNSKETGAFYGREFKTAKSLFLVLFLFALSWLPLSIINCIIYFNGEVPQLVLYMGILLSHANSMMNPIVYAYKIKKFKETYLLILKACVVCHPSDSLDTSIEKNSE

hA1AR = target: T4, hA1AR (Homo sapiens, UniProt P30542); test: Radioligand competition binding assay at hA1AR ([3H]DPCPX)
T4 construct: host or cells: CHO-A1 cells (membranes)
T4 sequence (P30542 1-326): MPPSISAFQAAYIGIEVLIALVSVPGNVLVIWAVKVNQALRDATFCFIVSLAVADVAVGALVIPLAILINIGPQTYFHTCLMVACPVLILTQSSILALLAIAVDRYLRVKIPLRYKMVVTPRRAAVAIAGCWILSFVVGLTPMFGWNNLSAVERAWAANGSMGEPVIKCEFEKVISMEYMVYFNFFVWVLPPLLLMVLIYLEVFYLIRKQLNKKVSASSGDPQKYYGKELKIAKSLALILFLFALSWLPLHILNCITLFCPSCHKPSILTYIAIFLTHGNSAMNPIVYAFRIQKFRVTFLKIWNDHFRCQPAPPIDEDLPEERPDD
Description: Adenosine A1 receptor competition binding experiments were carried out in membranes from CHO-A1 cells (Euroscreen, Gosselies, Belgium). On the day of assay, membranes were defrosted and re-suspended in incubation buffer 20 mM Hepes, 100 mM NaCl, 10 mM MgCl2, 2 UI/mL adenosine deaminase (pH = 7.4). Each reaction well of a GF/C multiscreen plate (Millipore, Madrid, Spain), prepared in duplicate, contained 15 μg of protein, 2 nM [^3H]DPCPX and test compound. Nonspecific binding was determined in the presence of 10 μM (R)-PIA. The reaction mixture was incubated at 25 °C for 60 min, after which samples were filtered and measured in a microplate beta scintillation counter (Microbeta Trilux, Perkin Elmer, Madrid, Spain).

hA3AR [2] = target: T3, hA3AR; test: Cyclic AMP accumulation functional assay at hA3AR expressed in CHO cells; format: cell-based; parameters: expressed in transfected cells
Description: Human adenosine A3 receptor functional experiments were carried out in CHO-A3#18 cell line. The day before the assay, the cells were seeded on the 96-well culture plate (Falcon 353072, Corning, Glendale, AZ, USA). The cells are washed with wash buffer (Dulbecco’s modified eagle’s medium nutrient mixture F-12 ham (Sigma D8062), 25 mM Hepes; pH = 7.4). Wash buffer is replaced by incubation buffer (Dulbecco’s modified eagle’s medium nutrient mixture F-12 ham (Sigma D8062), 25 mM Hepes, 30 μM Rolipram (Sigma R6520); pH = 7.4). Test compounds and MRS1220 as reference compound (Sigma M228) are added and the cells incubated at 37 °C for 15 min. After, 0.1 μM of 5′-N-ethylcarboxamido-adenosine (NECA) (Sigma E2387) is added and the cells incubated at 37 °C for 10 min. Forskolin (Sigma F3917, Sigma-Aldrich, St. Louis, MO, USA) is added and incubated at 37 °C for 5 min. After incubation, the amount of cAMP is determined using a cAMP Biotrak Enzymeimmunoassay (EIA) System Kit (GE Healthcare RPN225, GE Healthcare, Chicago, IL, USA).

T2 sequence (P29274 whole entry): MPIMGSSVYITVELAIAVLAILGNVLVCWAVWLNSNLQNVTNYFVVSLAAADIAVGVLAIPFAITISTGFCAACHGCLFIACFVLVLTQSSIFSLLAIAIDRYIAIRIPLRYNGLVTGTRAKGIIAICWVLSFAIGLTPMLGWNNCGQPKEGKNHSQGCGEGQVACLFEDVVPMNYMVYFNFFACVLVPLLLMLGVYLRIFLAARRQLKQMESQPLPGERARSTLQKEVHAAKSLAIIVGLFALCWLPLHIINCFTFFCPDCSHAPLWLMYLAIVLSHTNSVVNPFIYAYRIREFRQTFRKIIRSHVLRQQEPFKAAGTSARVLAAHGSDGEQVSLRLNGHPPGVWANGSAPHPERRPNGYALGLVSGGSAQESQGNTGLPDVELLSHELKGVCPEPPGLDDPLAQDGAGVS

Row | SMILES | inhibition at 10 µM (hA2BAR) [%] | inhibition at 10 µM (hA2AAR) [%] | Ki (hA3AR [1]) [nM] | inhibition at 10 µM (hA1AR) [%] | Behaviour in cAMP functional assay at hA3AR (hA3AR [2]) | Kb (hA3AR [2]; inhibition of NECA-induced cAMP accumulation) [nM]
1 | CNc1nc(Cl)nc2c1ncn2[C@@H]1[Se][C@H](C(=O)N(C)C)[C@@H](O)[C@H]1O [Compound 9h, (2S,3S,4R,5R)-5-(2-chloro-6-(methylamino)-9H-purin-9-yl)-3,4-dihydroxy-N,N-dimethyltetrahydroselenophene-2-carboxamide] | 19 | 5 | 1060 ± 140 | 58 | – | –
2 | CN(C)C(=O)[C@H]1[Se][C@@H](n2cnc3c(NCc4cccc(F)c4)ncnc32)[C@H](O)[C@@H]1O [Compound 9c, (2S,3S,4R,5R)-5-(6-((3-fluorobenzyl)amino)-9H-purin-9-yl)-3,4-dihydroxy-N,N-dimethyltetrahydroselenophene-2-carboxamide] | 19 | 12 | 2020 ± 170 | 13 | – | –
3 | CN(C)C(=O)[C@H]1[Se][C@@H](n2cnc3c(NCc4cccc(I)c4)ncnc32)[C@H](O)[C@@H]1O [Compound 9f, (2S,3S,4R,5R)-3,4-dihydroxy-5-(6-((3-iodobenzyl)amino)-9H-purin-9-yl)-N,N-dimethyltetrahydroselenophene-2-carboxamide] | – | 32 | 22.7 ± 8.9 | 36 | – | –
4 | CN(C)C(=O)[C@H]1[Se][C@@H](n2cnc3c(NCc4cccc(Cl)c4)ncnc32)[C@H](O)[C@@H]1O [Compound 9d, (2S,3S,4R,5R)-5-(6-((3-chlorobenzyl)amino)-9H-purin-9-yl)-3,4-dihydroxy-N,N-dimethyltetrahydroselenophene-2-carboxamide] | 15 | 4 | 1190 ± 160 | 23 | – | –
5 | CN(C)C(=O)[C@H]1[Se][C@@H](n2cnc3c(NCc4cccc(Cl)c4)nc(Cl)nc32)[C@H](O)[C@@H]1O [Compound 9j, (2S,3S,4R,5R)-5-(2-chloro-6-((3-chlorobenzyl)amino)-9H-purin-9-yl)-3,4-dihydroxy-N,N-dimethyltetrahydroselenophene-2-carboxamide] | 27 | 13 | 195 ± 40 | 63 | – | –
6 | CN(C)C(=O)[C@H]1[Se][C@@H](n2cnc3c(NCc4cccc(Br)c4)ncnc32)[C@H](O)[C@@H]1O [Compound 9e, (2S,3S,4R,5R)-5-(6-((3-bromobenzyl)amino)-9H-purin-9-yl)-3,4-dihydroxy-N,N-dimethyltetrahydroselenophene-2-carboxamide] | – | 37 | 36.3 ± 12.7 | 43 | – | –
7 | CN(C)C(=O)[C@H]1[Se][C@@H](n2cnc3c(NCc4cccc(F)c4)nc(Cl)nc32)[C@H](O)[C@@H]1O [Compound 9i, (2S,3S,4R,5R)-5-(2-chloro-6-((3-fluorobenzyl)amino)-9H-purin-9-yl)-3,4-dihydroxy-N,N-dimethyltetrahydroselenophene-2-carboxamide] | 14 | 9 | 238 ± 37 | 34 | – | –
8 | CN(C)C(=O)[C@H]1[Se][C@@H](n2cnc3c(N)ncnc32)[C@H](O)[C@@H]1O [Compound 9a, (2S,3S,4R,5R)-5-(6-amino-9H-purin-9-yl)-3,4-dihydroxy-N,N-dimethyltetra hydroselenophene-2-carboxamide] | 17 | 22 | 3710 ± 600 | 16 | – | –
9 | CNc1ncnc2c1ncn2[C@@H]1[Se][C@H](C(=O)N(C)C)[C@@H](O)[C@H]1O [Compound 9b, (2S,3S,4R,5R)-3,4-dihydroxy-N,N-dimethyl-5-(6-(methylamino)-9H-purin-9-yl)tetrahydroselenophene-2-carboxamide] | 9 | 3 | 609 ± 47 | 9 | – | –
10 | CN(C)C(=O)[C@H]1[Se][C@@H](n2cnc3c(N)nc(Cl)nc32)[C@H](O)[C@@H]1O [Compound 9g, (2S,3S,4R,5R)-5-(2-chloro-6-amino-9H-purin-9-yl)-3,4-dihydroxy-N,N-dimethyltetrahydroselenophene-2-carboxamide] | 25 | 3 | 3250 ± 370 | 9 | – | –
11 | CN(C)C(=O)[C@H]1[Se][C@@H](n2cnc3c(NCc4cccc(I)c4)nc(Cl)nc32)[C@H](O)[C@@H]1O [Compound 9l, (2S,3S,4R,5R)-5-(2-chloro-6-((3-iodobenzyl)amino)-9H-purin-9-yl)-3,4-dihydroxy-N,N-dimethyltetrahydroselenophene-2-carboxamide] | 23 | 10 | 253 ± 29 | 68 | antagonist activity | 114
12 | CN(C)C(=O)[C@H]1[Se][C@@H](n2cnc3c(NCc4cccc(Br)c4)nc(Cl)nc32)[C@H](O)[C@@H]1O [Compound 9k, (2S,3S,4R,5R)-5-(6-((3-bromobenzyl)amino)-2-chloro-9H-purin-9-yl)-3,4-dihydroxy-N,N-dimethyltetrahydroselenophene-2-carboxamide] | 27 | 10 | 180 ± 12 | 58 | – | –
